# Laboratory results reported in patent US11000033B2, “Ketone or oxime compound, and herbicide” (NISSAN CHEMICAL CORPORATION, priority 2014, dated 2021).
# Experiments:
# Type in all cases: in vivo
# [1] = test system: Monochoria vaginalis; assay: Test Example 2: herbicidal activity, application during weed generation in submerged conditions (symbol C); settings: Table 23; application herbicide amount 320 g/ha; grade 0-5 by criteria of Test Example 1
# In short: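 Flooded-soil post-emergence test: emulsion of compound, water-diluted to target rate, applied to paddy water surface at 1–2 leaf stage of mixed-sown weeds (alluvial soil, 4 cm water, 25–30° C. greenhouse); visual rating 3 weeks after application.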
# [2] = test system: directly sowed rice plant; assay: Test Example 3: effect on crop by foliage application, Wagner pot (symbol b); settings: application herbicide amount 320 g/ha
# In short: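 Wagner pot (1/10000 are), alluvial soil, submerged 0.1–0.5 cm; sown E. crus-galli var. crus-galli, L. chinensis, C. difformis, rice; greenhouse 25–30 °C.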
# [3] = test system: Digitaria ciliaris; assay: Test Example 4: herbicidal effect by soil treatment (symbol F); settings: application herbicide amount 320 g/ha
# In short: (§1)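 Seeds were sown in sterilized diluvial soil, covered with about 1.5 cm of soil, and the soil surface was sprayed with a water-diluted emulsion of the compound at a predetermined rate. Plants grew in a greenhouse at 25° C. to 30° C.; effects were scored visually 3 weeks after application.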
# [4] = test system: Echinochloa crus-galli var. crus-galli; assay: Test Example 4: herbicidal effect by soil treatment (symbol H); settings: application herbicide amount 320 g/ha
# In short: as §1
# [5] = test system: Avena fatua; assay: Test Example 4: herbicidal effect by soil treatment (symbol I); settings: application herbicide amount 320 g/ha
# In short: as §1
# [6] = test system: Alopecurus myosuroides; assay: Test Example 4: herbicidal effect by soil treatment (symbol J); settings: application herbicide amount 320 g/ha
# In short: as §1
# [7] = test system: Lolium multiflorum Lam.; assay: Test Example 4: herbicidal effect by soil treatment (symbol K); settings: application herbicide amount 320 g/ha
# In short: as §1
# [8] = test system: Apera spica-venti; assay: Test Example 4: herbicidal effect by soil treatment (symbol L); settings: application herbicide amount 320 g/ha
# In short: as §1
# [9] = test system: rice; assay: Test Example 4: effect on crop by soil treatment (symbol b); settings: application herbicide amount 320 g/ha
# In short: (§2)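 Plants are raised in a greenhouse (25° C. to 30° C.) from spot-sown seed, which sits under about 1.5 cm of sterilized diluvial soil in a box shared with weed species.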
# [10] = test system: beet; assay: Test Example 4: effect on crop by soil treatment (symbol f); settings: application herbicide amount 320 g/ha
# In short: as §2
# [11] = test system: rapeseed; assay: Test Example 4: effect on crop by soil treatment (symbol g); settings: application herbicide amount 320 g/ha
# In short: as §2
# [12] = test system: Digitaria ciliaris; assay: Test Example 5: herbicidal effect by foliage application, plastic box (symbol F); settings: 320 g/ha, 3 weeks after application
# In short: (§3)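 Post-emergence spray; diluvial soil (sterilized), ~1.5 cm seed cover; greenhouse 25–30° C; 14-day-old plants; water-diluted emulsion at predetermined dose; visual score at 3 wk post-treatment.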
# [13] = test system: Avena fatua; assay: Test Example 5: herbicidal effect by foliage application, plastic box (symbol I); settings: 320 g/ha, 3 weeks after application
# In short: as §3
# [14] = test system: Lolium multiflorum Lam.; assay: Test Example 5: herbicidal effect by foliage application, plastic box (symbol K); settings: 320 g/ha, 3 weeks after application
# In short: as §3
# [15] = test system: Apera spica-venti; assay: Test Example 5: herbicidal effect by foliage application, plastic box (symbol L); settings: 320 g/ha, 3 weeks after application
# In short: as §3
# [16] = test system: Abutilon theophrasti; assay: Test Example 5: herbicidal effect by foliage application, plastic box (symbol M); settings: 320 g/ha, 3 weeks after application
# In short: as §3
# [17] = test system: Amaranthus retroflexus; assay: Test Example 5: herbicidal effect by foliage application, plastic box (symbol N); settings: 320 g/ha, 3 weeks after application
# In short: as §3
# [18] = test system: Chenopodium album; assay: Test Example 5: herbicidal effect by foliage application, plastic box (symbol O); settings: 320 g/ha, 3 weeks after application
# In short: as §3
# [19] = test system: Stellaria media; assay: Test Example 5: herbicidal effect by foliage application, plastic box (symbol P); settings: 320 g/ha, 3 weeks after application
# In short: as §3
# [20] = test system: Galium spurium; assay: Test Example 5: herbicidal effect by foliage application, plastic box (symbol Q); settings: 320 g/ha, 3 weeks after application
# In short: as §3
# [21] = test system: Veronica persica; assay: Test Example 5: herbicidal effect by foliage application, plastic box (symbol R); settings: 320 g/ha, 3 weeks after application
# In short: as §3
# [22] = test system: wheat; assay: Test Example 5: effect on crop by foliage application, plastic box (symbol e); settings: 320 g/ha, 3 weeks after application
# In short: (§4)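 Diluvial soil, sterilized and boxed (21 × 13 × 7 cm), received spot-sown seed covered by about 1.5 cm soil; plants were then greenhouse-grown at 25–30° C.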
# [23] = test system: rapeseed; assay: Test Example 5: effect on crop by foliage application, plastic box (symbol g); settings: 320 g/ha, 3 weeks after application
# In short: as §4
Structure (SMILES),"Herbicidal effect grade, C: Monochoria vaginalis [1]","effect on crop b (directly sowed rice plant), grade 0-5 [2]","F: Digitaria ciliaris, herbicidal effect (criteria of Test Example 1) [12]","I: Avena fatua, herbicidal effect (criteria of Test Example 1) [13]","K: Lolium multiflorum Lam., herbicidal effect (criteria of Test Example 1) [14]","L: Apera spica-venti, herbicidal effect (criteria of Test Example 1) [15]","M: Abutilon theophrasti, herbicidal effect (criteria of Test Example 1) [16]","N: Amaranthus retroflexus, herbicidal effect (criteria of Test Example 1) [17]","O: Chenopodium album, herbicidal effect (criteria of Test Example 1) [18]","P: Stellaria media, herbicidal effect (criteria of Test Example 1) [19]","Q: Galium spurium, herbicidal effect (criteria of Test Example 1) [20]","R: Veronica persica, herbicidal effect (criteria of Test Example 1) [21]","e: wheat, effect on crop (criteria of Test Example 1) [22]","g: rapeseed, effect on crop (criteria of Test Example 1) [23]","F: Digitaria ciliaris, herbicidal effect grade [3]","H: Echinochloa crus-galli var. crus-galli, herbicidal effect grade [4]","I: Avena fatua, herbicidal effect grade [5]","J: Alopecurus myosuroides, herbicidal effect grade [6]","K: Lolium multiflorum Lam., herbicidal effect grade [7]","L: Apera spica-venti, herbicidal effect grade [8]",other results
CC(=O)CC1CC(O)=C(c2c(C)cc(OCc3ccccc3)cc2C)C1=O (stereo not drawn) [7-018],0 (Herbicidal ratio of 5% or lower (almost no effect)),3 (Herbicidal ratio of 40% or higher and lower than 70%),5 (Herbicidal ratio of 90% or more (almost completely withered)),0 (Herbicidal ratio of 5% or lower (almost no effect)),2 (Herbicidal ratio of 20% or higher and lower than 40%),2 (Herbicidal ratio of 20% or higher and lower than 40%),0 (Herbicidal ratio of 5% or lower (almost no effect)),0 (Herbicidal ratio of 5% or lower (almost no effect)),0 (Herbicidal ratio of 5% or lower (almost no effect)),0 (Herbicidal ratio of 5% or lower (almost no effect)),0 (Herbicidal ratio of 5% or lower (almost no effect)),0 (Herbicidal ratio of 5% or lower (almost no effect)),0 (Herbicidal ratio of 5% or lower (almost no effect)),0 (Herbicidal ratio of 5% or lower (almost no effect)),–,–,–,–,–,–,"Herbicidal effect grade, F: Digitaria ciliaris [3]: 3 (Herbicidal ratio of 40% or higher and lower than 70%); Herbicidal effect grade, H: Echinochloa crus-galli var. crus-galli [4]: 0 (Herbicidal ratio of 5% or lower (almost no effect)); Herbicidal effect grade, I: Avena fatua [5]: 0 (Herbicidal ratio of 5% or lower (almost no effect)); Herbicidal effect grade, J: Alopecurus myosuroides [6]: 0 (Herbicidal ratio of 5% or lower (almost no effect)); Herbicidal effect grade, K: Lolium multiflorum Lam. [7]: 0 (Herbicidal ratio of 5% or lower (almost no effect)); Herbicidal effect grade, L: Apera spica-venti [8]: 0 (Herbicidal ratio of 5% or lower (almost no effect)); Effect on crop grade, b: directly sowed rice plant [9]: 0 (Herbicidal ratio of 5% or lower (almost no effect)); Effect on crop grade, f: beet [10]: 0 (Herbicidal ratio of 5% or lower (almost no effect)); Effect on crop grade, g: rapeseed [11]: 0 (Herbicidal ratio of 5% or lower (almost no effect))"
CON=C(C)CC1CC(O)=C(c2c(C)cc(-n3cccn3)cc2C)C1=O (stereo not drawn) [6-073],1 (Herbicidal ratio of 5% or higher and lower than 20%),5 (Herbicidal ratio of 90% or more (almost completely withered)),5 (Herbicidal ratio of 90% or more (almost completely withered)),5 (Herbicidal ratio of 90% or more (almost completely withered)),5 (Herbicidal ratio of 90% or more (almost completely withered)),3 (Herbicidal ratio of 40% or higher and lower than 70%),0 (Herbicidal ratio of 5% or lower (almost no effect)),0 (Herbicidal ratio of 5% or lower (almost no effect)),3 (Herbicidal ratio of 40% or higher and lower than 70%),2 (Herbicidal ratio of 20% or higher and lower than 40%),3 (Herbicidal ratio of 40% or higher and lower than 70%),3 (Herbicidal ratio of 40% or higher and lower than 70%),3 (Herbicidal ratio of 40% or higher and lower than 70%),4 (Herbicidal ratio of 70% or higher and lower than 90%),5 (Herbicidal ratio of 90% or more (almost completely withered)),5 (Herbicidal ratio of 90% or more (almost completely withered)),3 (Herbicidal ratio of 40% or higher and lower than 70%),2 (Herbicidal ratio of 20% or higher and lower than 40%),5 (Herbicidal ratio of 90% or more (almost completely withered)),0 (Herbicidal ratio of 5% or lower (almost no effect)),"b: directly sowed rice plant, effect on crop grade [9]: 5 (Herbicidal ratio of 90% or more (almost completely withered)); f: beet, effect on crop grade [10]: 0 (Herbicidal ratio of 5% or lower (almost no effect)); g: rapeseed, effect on crop grade [11]: 3 (Herbicidal ratio of 40% or higher and lower than 70%)"
CON=C(C)CC1CC(OS(=O)(=O)N(C)C)=C(c2c(C)cc(-c3ccc(F)cc3)cc2C)C1=O (mixture of isomers) [6-060],4 (Herbicidal ratio of 70% or higher and lower than 90%),5 (Herbicidal ratio of 90% or more (almost completely withered)),5 (Herbicidal ratio of 90% or more (almost completely withered)),5 (Herbicidal ratio of 90% or more (almost completely withered)),5 (Herbicidal ratio of 90% or more (almost completely withered)),5 (Herbicidal ratio of 90% or more (almost completely withered)),5 (Herbicidal ratio of 90% or more (almost completely withered)),4 (Herbicidal ratio of 70% or higher and lower than 90%),4 (Herbicidal ratio of 70% or higher and lower than 90%),4 (Herbicidal ratio of 70% or higher and lower than 90%),4 (Herbicidal ratio of 70% or higher and lower than 90%),4 (Herbicidal ratio of 70% or higher and lower than 90%),4 (Herbicidal ratio of 70% or higher and lower than 90%),5 (Herbicidal ratio of 90% or more (almost completely withered)),5 (Herbicidal ratio of 90% or more (almost completely withered)),4 (Herbicidal ratio of 70% or higher and lower than 90%),0 (Herbicidal ratio of 5% or lower (almost no effect)),3 (Herbicidal ratio of 40% or higher and lower than 70%),3 (Herbicidal ratio of 40% or higher and lower than 70%),0 (Herbicidal ratio of 5% or lower (almost no effect)),"b: directly sowed rice plant, effect on crop grade [9]: 3 (Herbicidal ratio of 40% or higher and lower than 70%); f: beet, effect on crop grade [10]: 0 (Herbicidal ratio of 5% or lower (almost no effect)); g: rapeseed, effect on crop grade [11]: 0 (Herbicidal ratio of 5% or lower (almost no effect))"
